# Experimental data reported in the RepoRT retention time repository (doi:10.1016/j.chroma.2015.11.014).
# Test: RP, Agilent ZORBAX Eclipse Plus C18, 150 × 2.1 mm, 3.5 µm, 40 °C, 0.3 mL/min, estimated dead time 1.1 min; A: water + 0.1% formic acid; B: acetonitrile + 0.1% formic acid; gradient (min/%B) 0/2 1/2 2/20 16.5/98 22/98
# Conditions: stereoisomer not certain
row,SMILES,LC retention time
1,CC(C)(c1ccc(O)c([N+](=O)[O-])c1)c1ccc(O)c([N+](=O)[O-])c1,13.8 min
2,OCc1coc(-c2ccccc2)n1,7.56 min
3,COc1cccc(C2(O)CCCCC2C[N+](C)(C)[O-])c1 (configuration not stated),6.33 min
4,CCCCCCCCc1ccc(CCC(N)(CO)CO)cc1,10.2 min
5,COC(=O)Nc1nc2ccc(Sc3ccccc3)cc2[nH]1,9.95 min
6,Cc1ccnc2c1NC(=O)c1cccnc1N2C1CC1,7.3 min
7,CC(C(=O)O)c1cccc(C(=O)c2ccccc2)c1 (configuration not stated),10.9 min
8,[O-]N(O)c1ccc(C[P+](c2ccccc2)(c2ccccc2)c2ccccc2)cc1,8.52 min
9,Cc1cc(C2CC2)nc(Nc2ccccc2)n1,10.8 min
10,CC(C)c1ccccc1OP(=O)(Oc1ccccc1)Oc1ccccc1C(C)C,17.4 min
11,CCCCCCCCCCC(C(=O)c1ccc(OC)c(OC)c1)[N+](C)(C)C (configuration not stated),10.9 min
12,N#CC(C(=O)O)=C(c1ccccc1)c1ccccc1,13.7 min
13,O=C(OC1CC2CCC(C1)[N+]21CCCC1)C(O)(c1ccccc1)c1ccccc1 (configuration not stated),7.41 min
14,CCCCC1C(=O)N(c2ccccc2)N(c2ccccc2)C1=O,13.1 min
15,CCCCCCCCCCCCN,9.47 min
16,c1ccc2sc(SSN3CCOCC3)nc2c1,13.8 min
17,CC(=O)Nc1ccccc1,6.74 min
18,CCP(=O)(CC)CC,5.15 min
19,CCC(C)C(=O)OC1CC(O)C=C2C=CC(C)C(CCC(O)CC(O)CC(=O)O)C21 (configuration not stated),8.64 min
20,CC(C)(C(=O)O)c1ccc(C(=O)CCCN2CCC(OC(c3ccccc3)c3ccccc3)CC2)cc1,10 min
21,O=P(O)(O)c1ccccc1,3.09 min
22,COCC(=O)Nc1cc(Sc2ccccc2)ccc1N=C(NC(=O)OC)NC(=O)OC,13.1 min
23,Cc1ccc(C(=O)O)cc1,8.54 min
24,CCOC(=O)Nc1ccc(C)c(NC(=O)OCC)c1,10.1 min
25,CCCC(=NOCC)C1=C(O)CC(CC(C)SCC)CC1=O (configuration not stated),16.1 min

row,SMILES,LC retention time
1,CCCCCC[N+](CCCCCC)(CCCCCC)CCCCCC,13.1 min
2,COc1ccc(C(CN(C)C)C2(O)CCCCC2)cc1 (configuration not stated),6.63 min
3,NCCc1c[nH]c2ccccc12,4.97 min
4,CCP(=O)(c1ccccc1)c1ccccc1,8.82 min
5,CCCCC[N+](CCCC)(CCCC)CCCC,9.57 min
6,CCNCC(O)COc1ccc(CCOC)cc1 (configuration not stated),5.42 min
7,CCCCCCCCCCCCCN1CC(C)OC(C)C1 (configuration not stated),10.4 min
8,CCN(CC)C(=O)c1cccc(C)c1,10.4 min
9,CC12CC=C3c4ccc(O)cc4CCC3C1CCC2(O)CC#N (configuration not stated),9.96 min
10,COCCN(C(=O)CS(=O)(=O)O)c1c(C)cccc1C,6.76 min
11,CC(=O)Nc1c(C)n(C)n(-c2ccccc2)c1=O,5.59 min
12,c1ccc(Nc2ccc(Nc3ccccc3)cc2)cc1,14.5 min
13,O=C1CN(N=Cc2ccc([N+](=O)[O-])o2)C(=O)N1,6.22 min
14,CC(C)(C)NCC(O)c1cc(O)cc(O)c1 (configuration not stated),4.55 min
15,CC(=O)OCC[N+](C)(C)C,2.06 min
16,CCCCCCCCCCCCCC[N+](C)(C)CCCCCCCCCCCCCC,16.9 min
17,NC12CC3CC(CC(C3)C1)C2,5.15 min
18,CC(C)NCC(O)COc1ccc(CC(N)=O)cc1 (configuration not stated),4.62 min
19,CC(=O)OCCCC[P+](c1ccccc1)(c1ccccc1)c1ccccc1,8.85 min
20,CC(=O)C1CCC2C3CCC4=CC(=O)CCC4(C)C3C(O)CC12C (configuration not stated),10.3 min
21,CCCCOCCOP(=O)(OCCOCCCC)OCCOCCCC,14.6 min
22,CCc1cccc(C)c1N,7.96 min
23,CCCc1nc2c(C)cc(-c3nc4ccccc4n3C)cc2n1Cc1ccc(-c2ccccc2C(=O)O)cc1,8.86 min
24,CCCC1CC(C(=O)NC(C(C)O)C2OC(SC)C(O)C(O)C2O)N(C)C1 (configuration not stated),4.88 min
25,O=C(O)c1ccccc1O,7.89 min

row,SMILES,LC retention time
1,CCCCC(CC)COP(=O)(Oc1ccccc1)Oc1ccccc1 (configuration not stated),17 min
2,CNC(=C[N+](=O)[O-])NCCSCc1ccc(CN(C)C)o1,4.83 min
3,O=C1NC(=O)C(c2ccccc2)(c2ccccc2)N1,9.18 min
4,CNCCOC(c1ccccc1)c1ccccc1,7.56 min
5,CCOC(=O)C[P+](c1ccccc1)(c1ccccc1)c1ccccc1,8 min
6,OCCN1CCN(CCCN2c3ccccc3C=Cc3ccccc32)CC1,7.24 min
7,CCCCCCCCCCC(C(=O)OCCCCCC)[N+](C)(C)Cc1ccccc1 (configuration not stated),13.6 min
8,O=c1[nH]c(=O)c2ccccc2[nH]1,5.39 min
9,Nc1nc2c(ncn2C2CC(O)C(CO)O2)c(=O)[nH]1 (configuration not stated),4.09 min
10,CC(O)CCCCn1c(=O)c2c(ncn2C)n(C)c1=O (configuration not stated),6.42 min
11,CCOc1ccc2ccccc2c1C(=O)NC1C(=O)N2C1SC(C)(C)C2C(=O)O (configuration not stated),10.6 min
12,CCCCCCCCCCCC[N+](C)(C)CCCCCCCCCCCC,15.3 min
13,COc1cc2c(cc1OC)C(=O)C(CC1CCN(Cc3ccccc3)CC1)C2 (configuration not stated),7.43 min
14,Nc1nc(N)c2nc(-c3ccccc3)c(N)nc2n1,5.2 min
15,CN(C)CCOC(c1ccccc1)c1ccccc1,7.72 min
16,Cn1c(=O)c2[nH]cnc2n(C)c1=O,4.94 min
17,O=c1c2ccccc2[nH]c2ccccc12,8.5 min
18,CC(C)(C)[P+](=O)C(C)(C)C,7.1 min
19,N=C(N)c1ccc(OCCCCCCOc2ccc(C(=N)N)cc2)cc1,5.92 min
20,CNCC(CC(=O)O)CC(C)C (configuration not stated),4.84 min
21,Cc1cc(=O)n(-c2ccccc2)n1C,6.26 min
22,CC(C)C(NC(=O)OC(C)(C)C)C(=O)O (configuration not stated),9 min
23,CCCCP(=O)(CCCC)CCCC,11.1 min
24,CC(C(=O)O)c1ccc2cc(O)ccc2c1 (configuration not stated),8.5 min
25,Nc1ccn(C2CSC(C(=O)O)O2)c(=O)n1 (configuration not stated),2.46 min

row,SMILES,LC retention time
1,CCCCCCCCOS(=O)(=O)O,9.59 min
2,CCCCCCCCCCC(C(=O)OC)[N+](C)(C)Cc1ccccc1 (configuration not stated),11.2 min
3,Nc1ccccc1C[P+](c1ccccc1)(c1ccccc1)c1ccccc1,8.43 min
4,CCCC[P+](CCCC)(CCCC)CC1OCCO1,8.76 min
5,CCCCCCCCCC(=O)N(C)C,13.6 min
6,c1ccc(-c2nc3ccccc3[nH]2)cc1,5.9 min
7,Cn1cnc2c1c(=O)[nH]c(=O)n2C,5.24 min
8,CCNCC(=O)Nc1c(C)cccc1C,5.35 min
9,COC1CC(CC2CCC(C)C(C(C)C(=O)O)O2)OC2(OC(C)(C3CCC(C)(C4OC(C5OC(O)(CO)C(C)CC5C)CC4C)O3)CC2C)C1C (configuration not stated),21.2 min
10,CCOC(=O)CC(SP(=S)(OC)OC)C(=O)OCC (configuration not stated),12.9 min
11,COc1cc(Cc2cnc(N)nc2N)cc(OC)c1OC,5.11 min
12,CC1(C)CC(N(C=O)CCCCCCN(C=O)C2CC(C)(C)NC(C)(C)C2)CC(C)(C)N1,4.67 min
13,CC1(C)SC2C(NC(=O)C(N)c3ccccc3)C(=O)N2C1C(=O)O (configuration not stated),5.37 min
14,c1ccc(P(=N[P+](c2ccccc2)(c2ccccc2)c2ccccc2)(c2ccccc2)c2ccccc2)cc1,12.3 min
15,CCCCCCCCCC[N+](C)(C)CCCCCCCC,12.4 min
16,CN1C=CN(Cc2ccccc2)C1,4.93 min
17,COCCOCCOCCOCCOC,6.01 min
18,NC(=O)CN1CCCC1=O,2.62 min
19,CNNCc1ccc(C(=O)NC(C)C)cc1,4.91 min
20,CC12C=CC(=O)C=C1CCC1C2C(=O)CC2(C)C1CCC2(O)C(=O)CO (configuration not stated),8.47 min
21,O=P(Oc1ccccc1)(Oc1ccccc1)Oc1ccccc1,14.1 min
22,CN(C)c1ccc(C(=C2C=CC(N(C)C)C=C2)c2ccccc2)cc1 (configuration not stated),9.29 min
23,C[N+](C)([O-])CCOC(c1ccccc1)c1ccccc1,8.07 min
24,COC(=O)C1C2CC3c4[nH]c5cc(OC)ccc5c4CCN3CC2CC(OC(=O)c2cc(OC)c(OC)c(OC)c2)C1OC (configuration not stated),8.6 min
25,CSc1nc(NC2CC2)nc(NC(C)(C)C)n1,10.2 min

row,SMILES,LC retention time
1,Cc1ccccc1N=C(N)N=C(N)N,4.67 min
2,COc1ccccc1-c1nc2ccccc2[nH]1,6.22 min
3,O=S(=O)(O)c1ccc2ccccc2c1,7.09 min
4,CN(C)Cc1ccccc1,4.42 min
5,CC(C)c1ccc(NC(=O)N(C)C)cc1,10.3 min
6,O=S(=O)(O)NC1CCCCC1,5.07 min
7,COc1cc(C(=O)O)cc(OC)c1OC,7.63 min
8,CCCC[N+](C)(CCCC)CCCC,7.01 min
9,Cc1nnc(-c2ccccc2)c(=O)n1N,6.78 min
10,S=c1[nH]c2ccccc2o1,8.26 min
11,CN1CCCC1=O,4.39 min
12,Cc1ccccc1NC(=O)NC1CCCCC1,11 min
13,CC(=O)Nc1ccc(C)cc1,7.71 min
14,Cc1ccc2n[nH]nc2c1,7.02 min
15,CC(=O)Nc1cc(NC(C)=O)cc(C(=O)O)c1,5.22 min
16,Nc1ccc(C(=O)O)c(O)c1,5.48 min
17,Nc1nc2c(ncn2COCC(=O)O)c(=O)[nH]1,2.92 min
18,O=c1[nH]c2c(c(=O)n1C1CCCCC1)CCC2,9.02 min
19,CCC(C(N)=O)N1CCCC1=O (configuration not stated),5.14 min
20,Cc1ccccc1NC(=O)Nc1ccccc1C,11.1 min
21,O=c1[nH]c(=O)c2[nH]cnc2[nH]1,2.43 min
22,CCCN(CCC)C(=O)SCc1ccccc1,15.5 min
